The values that follow come from US9657015B2, “Substituted bicyclic dihydropyrimidinones and their use as inhibitors of neutrophil elastase activity” (Boehringer Ingelheim International GmbH, priority 2014, dated 2017).

Values after ≈ are worked out from the molar mass of the structure shown.

Data set [1] addresses Human neutrophil elastase (Homo sapiens (Human), UniProt P08246). Nature of the data set: Human Neutrophil Elastase Assay. The format is biochemical. Conditions: substrate MeOSuc-Ala-Ala-Pro-Val-AMC 250 μM, pH 7.5, room temperature.
Protocol: The following buffers were used: Compound buffer: 100 mM Tris, 500 mM NaCl, adjusted to pH 7.5; Assay buffer: 100 mM Tris, 500 mM NaCl, adjusted to pH 7.5, containing 0.01% BSA.
Assay conditions: Test compounds were prediluted in DMSO and subsequently in compound buffer (5% DMSO final). […] After inactivation of the enzyme, fluorescence intensities were measured at 380 nm excitation and 460 nm emission wavelengths.
Each plate contains wells with a high value control (DMSO+enzyme+substrate) and wells with a low value control (DMSO+inactivated enzyme+substrate). IC50 values were estimated using a sigmoidal concentration response curve with variable slope. Means of low values were taken as 0%, means of high values as 100%.
The target of data set [2] is neutrophil elastase in human plasma (Homo sapiens (Human), UniProt P08246). Nature of the data set: Neutrophil elastase inhibitory activity in human plasma. To be noted: human plasma assay (zymosan-stimulated blood plasma), substrate 250 μM, pH 7.5. The class given is biochemical.
neutrophil elastase in human plasma, sequence (P08246 30-247): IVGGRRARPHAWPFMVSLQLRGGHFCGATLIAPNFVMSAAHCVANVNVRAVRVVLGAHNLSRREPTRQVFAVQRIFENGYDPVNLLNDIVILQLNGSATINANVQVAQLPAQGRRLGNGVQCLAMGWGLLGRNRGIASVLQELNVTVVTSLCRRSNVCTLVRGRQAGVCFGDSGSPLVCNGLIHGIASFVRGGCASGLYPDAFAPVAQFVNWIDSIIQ
Protocol: Assay for the Determination of Neutrophil Elastase Inhibitory Activity in Human Plasma
Citrated blood from human healthy donors is mixed with zymosan suspension and incubated at room temperature. This leads to the stimulation of neutrophils and the release of neutrophil elastase into the plasma. The stimulated blood is centrifuged to generate the neutrophil elastase enriched plasma.
Preparation of Zymosan Working Solution:
Various concentrations of the neutrophil elastase inhibitor are incubated with plasma. […] A dose response curve is generated to calculate the EC50 of the inhibitor.
The nature of data set [3]: Drug transport across human Caco-2 cells. The format is in vitro ADME. Conditions: human, Caco-2 monolayers, pH 7.2, 37° C.; for Papp A→B at 10 µM: apical-to-basal, read-out: PEAB; for Papp B→A at 10 µM: basal-to-apical, read-out: PEBA. The source says:
Assay for Determination of Drug Transport Across Human Caco-2 Cells
The assay provides information on the potential of a compound to pass the cell membrane, on the extent of oral absorption as well as on whether the compound is actively transported by uptake and/or efflux transporters. For the measurement of permeability across polarized, confluent human cancer colon carcinoma cells 2 (Caco-2) cell monolayers grown on permeable filter supports are used as the in vitro absorption model.
Apparent permeability coefficients (PE) of the compounds across the Caco-2 monolayers are measured (pH 7.2, 37° C.) in apical-to-basal (AB) (absorptive) and basal-to-apical (BA) (secretory) transport direction. AB permeability (PEAB) represents drug absorption from the intestine into the blood and BA permeability (PEBA) drug secretion from the blood back into the intestine via both passive permeability as well as active transport mechanisms mediated by efflux and uptake transporters that are expressed on the Caco-2 cells. The compounds are assigned to permeability/absorption classes by comparison of the AB permeabilities with the AB permeabilities of reference compounds with known in vitro permeability and oral absorption in the human. Identical or similar permeabilities in both transport directions indicate passive permeation, vectorial permeability points to additional active transport mechanisms. […] Active transport is concentration-dependently saturable.
Caco-2 cells (1-2*10^5 cells/cm^2 area) are seeded on filter inserts (Costar transwell polycarbonate or PET filters, 0.4 μm pore size) and cultured (DMEM) for 10 to 25 days. Compounds are dissolved in appropriate solvent (like DMSO, 1-20 mM stock solutions). Stock solutions are diluted with HTP-4 buffer (128.13 mM NaCl, 5.36 mM KCl, 1 mM MgSO4, 1.8 mM CaCl2, 4.17 mM NaHCO3, 1.19 mM Na2HPO4×7H2O, 0.41 mM NaH2PO4×H2O, 15 mM HEPES, 20 mM glucose, pH 7.2) to prepare the transport solutions (typically 10 μM compound, final DMSO<=0.5%). The transport solution (TL) is applied to the apical or basolateral donor side for measuring A-B or B-A permeability (3 filter replicates), respectively. The receiver side contains HTP-4 buffer supplemented with 2% BSA. Samples are collected at the start and end of experiment from the donor and at various time intervals for up to 2 hours also from the receiver side for concentration measurement by LC-MS/MS or scintillation counting. Sampled receiver volumes are replaced with fresh receiver solution.
The apparent permeability coefficients (PEAB and PEBA) of selected compounds in the Caco-2 drug transport assay described above are listed in Table 9.

Data set [4] can be described thus: Aqueous solubility (High Throughput Method). The format is physicochemical. To be noted: McIlvaine buffer pH 6.8 with 2.5% DMSO, aqueous buffer, kinetic from dmso stock; McIlvaine buffer pH 6.8, 2.5% DMSO, 24 h shaking. The protocol: Assay for Determination of Aqueous Solubility (“High Throughput Method”)
Starting from a 10 mM DMSO stock solution, aliquots are diluted with acetonitrile/water (1/1) and McIlvaine buffer pH 6.8, respectively. After 24 h of shaking, the solutions or suspensions are filtered and analyzed by LC-UV. The amount dissolved in buffer is compared to the amount dissolved in the acetonitrile/water (1/1) solution. Solubility is measured from 0.001 to 0.125 mg/ml at a DMSO concentration of 2.5%. If more than 90% of the compound is dissolved in buffer, the value is marked with “>”.

A short description of data set [5]: Metabolic stability with human liver microsomes. The class given is in vitro ADME. To be noted: pH 7.6; pooled human liver microsomes, 37° C., 1 μM test compound, 1 mg/ml microsomal protein, NADPH; read-out: t1/2 INVITRO.

Human neutrophil elastase, sequence (P08246 30-247): as above

As to `CN1C(=O)N(c2cccc(C(F)(F)F)c2)C2=C(C(=O)NCC2)C1c1ccc(C#N)cc1Br` (centres unmarked) [Example 22, 3-Bromo-4-{3-methyl-2,5-dioxo-1-[3-(trifluoromethyl)phenyl]-1H,2H,3H,4H,5H,6H,7H,8H-pyrido[4,3-d]pyrimidin-4-yl}benzonitrile], the values for the IC50 in data set [1] and in data set [2] were under 1 nM and 2.5 nM, respectively.

On to `CN1CCC2=C(C1=O)C(c1ccc(C#N)cc1CO)N(C)C(=O)N2c1cccc(C(F)(F)F)c1` (centres unmarked) [Example 38, 4-{3,6-Dimethyl-2,5-dioxo-1-[3-(trifluoromethyl)phenyl]-1H,2H,3H,4H,5H,6H,7H,8H-pyrido[4,3-d]pyrimidin-4-yl}-3-(hydroxymethyl)benzonitrile], for which, in data set [1], the IC50 was under 1 nM. Further, in data set [3], the Papp A→B at 10 µM was 24 ×10⁻⁶ cm/s and the Papp B→A at 10 µM amounted to 91 ×10⁻⁶ cm/s. Besides, the IC50 in data set [2] was determined as 1.4 nM. Also, the solubility at 24 h in data set [4] is 89 µg/mL (≈ 189 µM).

With `N#Cc1ccc(C2NC(=O)N(c3cccc(C(F)(F)F)c3)C3=C2C(=O)N(C(=O)NCCO)CC3)cc1` (centres unmarked) [Example 18, 4-(4-Cyanophenyl)-N-(2-hydroxyethyl)-2,5-dioxo-1-[3-(trifluoromethyl)phenyl]-1H,2H,3H,4H,5H,6H,7H,8H-pyrido[4,3-d]pyrimidine-6-carboxamide], the IC50 in data set [1] turned out to be 3.8 nM; in data set [2] it was 6.7 nM.

`N#Cc1ccc(C2C3=C(CCNC3=O)N(c3cccc(C(F)(F)F)c3)C(=O)N2CC(=O)N2CCC(F)C2)cc1` (centres unmarked) [Example 12.8]: the IC50 in data set [1] was under 1 nM; in data set [2] it was 1.1 nM.

In the case of `CCNC(=O)CN1C(=O)N(c2cccc(C(F)(F)F)c2)C2=C(C(=O)NCC2)C1c1ccc(C#N)cc1` (centres unmarked) [Example 12.2], the figures for the IC50 in data set [1] and in data set [2] were 2.4 nM and 2.5 nM, respectively.

For `CC1(C)CC2=C(C(=O)N1)C(c1ccc(C#N)cc1)N(CC(=O)O)C(=O)N2c1cccc(C(F)(F)F)c1` (centres unmarked) [Example 13, 2-(4-(4-cyanophenyl)-7,7-dimethyl-2,5-dioxo-1-(3-(trifluoromethyl)phenyl)-1,2,5,6,7,8-hexahydropyrido[4,3-d]pyrimidin-3(4H)-yl)acetic acid], the IC50 is 4.3 nM in data set [1] and 2.2 nM in data set [2].

Consider `N#Cc1ccc(C2NC(=O)N(c3cccc(C(F)(F)F)c3)C3=C2C(=O)NCC3)c(C(F)(F)F)c1` (centres unmarked) [Example 27, 4-{2,5-Dioxo-1-[3-(trifluoromethyl)phenyl]-1H,2H,3H,4H,5H,6H,7H,8H-pyrido-[4,3-d]pyrimidin-4-yl}-3-(trifluoromethyl)benzonitrile], for which the IC50 in data set [1] and in data set [2] was under 1 nM throughout.

For `CN1C(=O)N(c2cccc(C(F)(F)F)c2)C2=C(C(=O)NCC2)C1c1ccc(C#N)cc1C(F)(F)F` (centres unmarked) [Example 28, 4-{3-Methyl-2,5-dioxo-1-[3-(trifluoromethyl)phenyl]-1H,2H,3H,4H,5H,6H,7H,8H-pyrido[4,3-d]pyrimidin-4-yl}-3-(trifluoromethyl)benzonitrile], the IC50 was under 1 nM in data set [1] and 1.1 nM in data set [2].

Turning to `N#Cc1ccc(C2NC(=O)N(c3cccc(C(F)(F)F)c3)C3=C2C(=O)NCC3)c(-c2cnco2)c1` (centres unmarked) [Example 23, 4-{2,5-Dioxo-1-[3-(trifluoromethyl)phenyl]-1H,2H,3H,4H,5H,6H,7H,8H-pyrido-[4,3-d]pyrimidin-4-yl}-3-(1,3-oxazol-5-yl)benzonitrile], the values for the IC50 in data set [1] and in data set [2] were under 1 nM and 1.1 nM, respectively.

For `CN(C)C(=O)CN1C(=O)N(c2cccc(C(F)(F)F)c2)C2=C(C(=O)NCC2)C1c1ccc(C#N)cc1` (centres unmarked) [Example 12.1], the IC50 is 1.1 nM in data set [1] and under 1 nM in data set [2].

Consider `N#Cc1ccc(C2C3=C(CCNC3=O)N(c3cccc(C(F)(F)F)c3)C(=O)N2C(=O)NCCO)cc1` (centres unmarked) [Example 17, 4-(4-Cyanophenyl)-N-(2-hydroxyethyl)-2,5-dioxo-1-[3-(trifluoromethyl)phenyl]-1H,2H,3H,4H,5H,6H,7H,8H-pyrido[4,3-d]pyrimidine-3-carboxamide], for which the IC50 in data set [1] and in data set [2] was under 1 nM throughout.

With `N#Cc1ccc(C2C3=C(CCNC3=O)N(c3cccc(C(F)(F)F)c3)C(=O)N2CC(N)=O)cc1` (centres unmarked) [Example 11, 2-(4-(4-Cyanophenyl)-2,5-dioxo-1-(3-(trifluoromethyl)phenyl)-1,2,5,6,7,8-hexahydropyrido[4,3-d]pyrimidin-3(4H)-yl)acetamide], the values for the IC50 in data set [1] and in data set [2] were 3 nM and 2.9 nM, respectively.

`CNC(=O)N1C(=O)N(c2cccc(C(F)(F)F)c2)C2=C(C(=O)NCC2)C1c1ccc(C#N)cc1` (centres unmarked) [Example 16, 4-(4-Cyanophenyl)-N-methyl-2,5-dioxo-1-(3-(trifluoromethyl)phenyl)-1,2,5,6,7,8-hexahydropyrido[4,3-d]pyrimidine-3(4H)-carboxamide]: the IC50 in data set [1] was under 1 nM; in data set [2] it was 2.4 nM.

As to `CN1CCC2=C(C1=O)C(c1ccc(C#N)cc1-c1ccc(=O)n(C)n1)N(C)C(=O)N2c1cccc(C(F)(F)F)c1` (centres unmarked) [Example 41, 4-{3,6-Dimethyl-2,5-dioxo-1-[3-(trifluoromethyl)phenyl]-1H,2H,3H,4H,5H,6H,7H,8H-pyrido[4,3-d]pyrimidin-4-yl}-3-(1-methyl-6-oxo-1,6-dihydropyridazin-3-yl)-benzonitrile], in data set [3], the Papp A→B at 10 µM was 6 ×10⁻⁶ cm/s and the Papp B→A at 10 µM came out at 91 ×10⁻⁶ cm/s. In data set [2], this compound gave an IC50 of 1 nM. Moreover, in data set [5], the half-life at 1 μM is over 2.17 h. In data set [4], the solubility at 24 h amounted to 93 µg/mL (≈ 170 µM).

With `Cn1cc(-c2cc(C#N)ccc2C2NC(=O)N(c3cccc(C(F)(F)F)c3)C3=C2C(=O)NCC3)cn1` (centres unmarked) [Example 24, 4-{2,5-Dioxo-1-[3-(trifluoromethyl)phenyl]-1H,2H,3H,4H,5H,6H,7H,8H-pyrido-[4,3-d]pyrimidin-4-yl}-3-(1-methyl-1H-pyrazol-4-yl)benzonitrile], the IC50 in data set [1] was under 1 nM; in data set [2], 1.4 nM.

Turning to `CN1CCC2=C(C1=O)C(c1ccc(C#N)cc1)N(CC(N)=O)C(=O)N2c1cccc(C(F)(F)F)c1` (centres unmarked) [Example 14, 2-(4-(4-Cyanophenyl)-6-methyl-2,5-dioxo-1-(3-(trifluoromethyl)phenyl)-1,2,5,6,7,8-hexahydropyrido[4,3-d]pyrimidin-3(4H)-yl)acetamide], the IC50 in data set [1] came to 3 nM; in data set [2] it was 14 nM.

For the compound `N#Cc1ccc(C2C3=C(CCNC3=O)N(c3cccc(C(F)(F)F)c3)C(=O)N2CC(=O)O)cc1` (centres unmarked) [Example 10, 2-(4-(4-Cyanophenyl)-2,5-dioxo-1-(3-(trifluoromethyl)phenyl)-1,2,5,6,7,8-hexahydropyrido[4,3-d]pyrimidin-3(4H)-yl)acetic acid], the IC50 in data set [1] is 2.7 nM; in data set [2] it was 2.4 nM.

Consider `N#Cc1ccc(C2NC(=O)N(c3cccc(C(F)(F)F)c3)C3=C2C(=O)NCC3)cc1` (racemic) [Example 1, 4-(2,5-Dioxo-1-(3-(trifluoromethyl)phenyl)-1,2,3,4,5,6,7,8-octahydropyrido[4,3-d]-pyrimidin-4-yl)benzonitrile], for which the IC50 came out at 5.7 nM in data set [1] and 11 nM in data set [2].

As to `CNC(=O)CN1C(=O)N(c2cccc(C(F)(F)F)c2)C2=C(C(=O)NCC2)C1c1ccc(C#N)cc1` (racemic) [Example 12, 2-(4-(4-Cyanophenyl)-2,5-dioxo-1-(3-(trifluoromethyl)phenyl)-1,2,5,6,7,8-hexahydropyrido[4,3-d]pyrimidin-3(4H)-yl)-N-methylacetamide], the IC50 in data set [1] amounted to 2 nM; in data set [2], 2.8 nM.
